Results as given in US9265253B2, “Use of macrocyclic picolinamides as fungicides” (DOW AGROSCIENCES LLC, priority 2013, dated 2016).
Where two headings read alike, the source gives them in different places.

What was measured:
[1] = system: Mycosphaerella graminicola; Anamorph: Septoria tritici; assay: Leaf Blotch of Wheat (SEPTTR) disease control; assay type: in vivo; details: Zymoseptoria tritici
Protocol: (§1) Technical grades of materials were dissolved in acetone, which were then mixed with nine volumes of water containing 110 ppm Triton X-100. The fungicide solutions were applied onto wheat seedlings using an automated booth sprayer to run-off. All sprayed plants were allowed to air dry prior to further handling. All fungicides were evaluated using the aforementioned method for their activity vs. all target diseases. Wheat leaf blotch and brown rust activity were also evaluated using track spray applications, in which case the fungicides were formulated as EC formulations, containing 0.1% Trycol 5941 in the spray solutions. Wheat plants (variety Yuma) were grown from seed in a greenhouse in 50% mineral soil/50% soil-less Metro mix until the first leaf was fully emerged, with 7-10 seedlings per pot. These plants were inoculated with an aqueous spore suspension of Septoria tritici either prior to or after fungicide treatments. After inoculation the plants were kept in 100% relative humidity (one day in a dark dew chamber followed by two to three days in a lighted dew chamber at 20° C.) to permit spores to germinate and infect the leaf. The plants were then transferred to a greenhouse set at 20° C. for disease to develop. When disease symptoms were fully expressed on the 1st leaves of untreated plants, infection levels were assessed on a scale of 0 to 100 percent disease severity. Percent disease control was calculated using the ratio of disease severity on treated plants relative to untreated plants.

[2] = system: Puccinia triticina; Synonym: Puccinia recondite f. Sp. Tritici; assay: Wheat Brown Rust (PUCCRT) disease control; assay type: in vivo; details: Puccinia triticina, topical
Protocol: as §1, with “plants. Wheat plants (variety Yuma) were grown from seed in a greenhouse in 50% mineral soil/50% soil-less Metro mix until the first leaf was fully emerged, with 7-10 seedlings per pot. These plants were inoculated with an aqueous spore suspension of Puccinia triticina either prior to or after fungicide treatments. After inoculation the plants were kept in a dark dew room at 22° C. with 100% relative humidity overnight to permit spores to germinate and infect the leaf. The plants were then transferred to a greenhouse set at 24° C. for disease to develop. Fungicide formulation, application and disease assessment followed the procedures as described in the Example A.” for “plants.”

[3] = 24 h, 1 Day Protectant, rate 100 ppm, read-out: SEPTTR 1 DP disease control
[4] = 72 h, 3 Day Curative, rate 100 ppm, read-out: SEPTTR 3 DC disease control
[5] = 24 h, 1 Day Protectant, rate 100 ppm, read-out: PUCCRT 1 DP disease control
[6] = 72 h, 3 Day Curative, rate 100 ppm, read-out: PUCCRT 3 DC disease control
[7] = 24 h, 1 Day Protectant, rate 121.5 g/H, read-out: SEPTTR 1 DP disease control
[8] = 72 h, 3 Day Curative, rate 121.5 g/H, read-out: SEPTTR 3 DC disease control
[9] = 24 h, 1 Day Protectant, rate 121.5 g/H, read-out: PUCCRT 1 DP disease control
[10] = 72 h, 3 Day Curative, rate 121.5 g/H, read-out: PUCCRT 3 DC disease control

Compound | pest or weed control at 100 ppm [1, 3] [%] | pest or weed control at 100 ppm [1, 4] [%] | pest or weed control at 100 ppm [2, 5] [%] | pest or weed control at 100 ppm [2, 6] [%] | other results
COc1ccnc(C(=O)N[C@H]2CCC[C@H](CCC(C)C)[C@@H](OC3CCCC3)[C@H](C)OC2=O)c1O [Compound F6] | 80 to 100 | 80 to 100 | 80 to 100 | 80 to 100 | 
CC[C@H]1CCC[C@H](NC(=O)c2nccc(OC)c2O)C(=O)O[C@@H](C)[C@@H]1OCC(C)C [Compound F48] | 80 to 100 | 80 to 100 | 80 to 100 | 80 to 100 | 
CCO[C@@H]1[C@@H](Cc2ccccc2)CCC[C@H](NC(=O)c2nccc(OC)c2OCOC(C)=O)C(=O)O[C@H]1C [Compound F111] |  |  |  |  | pest or weed control at 121.5 g/ha [1, 7]: 80 to 100%; pest or weed control at 121.5 g/ha [1, 8]: 80 to 100%; pest or weed control at 121.5 g/ha [2, 9]: 80 to 100%; pest or weed control at 121.5 g/ha [2, 10]: 80 to 100%
CCOCC(=O)Oc1c(OC)ccnc1C(=O)N[C@H]1CCC[C@H](CCF)[C@@H](OCC(C)C)[C@H](C)OC1=O [Compound F184] | 80 to 100 | 80 to 100 | 80 to 100 | 80 to 100 | 
CCOCC(=O)Oc1c(OC)ccnc1C(=O)N[C@H]1CCC[C@H](CCOC)[C@@H](Oc2ccccc2)[C@H](C)OC1=O [Compound F186] | 80 to 100 | 80 to 100 | 80 to 100 | 80 to 100 | 
COc1ccnc(C(=O)N[C@H]2CCC[C@H](CC3CCCC3)[C@@H](OCC(C)C)[C@H](C)OC2=O)c1OC(C)=O [Compound F75] | 80 to 100 | 80 to 100 | 80 to 100 | 80 to 100 | pest or weed control at 121.5 g/ha [1, 7]: 80 to 100%; pest or weed control at 121.5 g/ha [1, 8]: 80 to 100%; pest or weed control at 121.5 g/ha [2, 9]: 80 to 100%; pest or weed control at 121.5 g/ha [2, 10]: 0 to 80%
COc1ccnc(C(=O)N[C@H]2CCC[C@H](CC3CCCC3)[C@@H](OC(=O)C(C)C)[C@H](C)OC2=O)c1O [Compound F35] | 80 to 100 |  | 0 to 80 |  | 
CCCO[C@@H]1[C@@H](CC2CCCC2)CCC[C@H](NC(=O)c2nccc(OC)c2OCOC(C)=O)C(=O)O[C@H]1C [Compound F122] | 80 to 100 | 80 to 100 | 80 to 100 | 80 to 100 | pest or weed control at 121.5 g/ha [1, 7]: 80 to 100%; pest or weed control at 121.5 g/ha [1, 8]: 80 to 100%; pest or weed control at 121.5 g/ha [2, 9]: 80 to 100%; pest or weed control at 121.5 g/ha [2, 10]: 80 to 100%
COc1ccnc(C(=O)N[C@H]2CCC[C@H](Cc3ccccc3)[C@@H](Oc3ccccc3)[C@H](C)OC2=O)c1O [Compound F20] | 80 to 100 | 80 to 100 | 80 to 100 | 0 to 80 | 
COc1ccnc(C(=O)N[C@H]2CCC[C@H](CCC(C)C)[C@@H](OCC3CC3)[C@H](C)OC2=O)c1O [Compound F3] | 80 to 100 | 80 to 100 | 80 to 100 | 80 to 100 | 
COc1ccnc(C(=O)N[C@H]2CCC[C@H](Cc3ccccc3)[C@@H](OCC(C)C)[C@H](C)OC2=O)c1O [Compound F18] | 80 to 100 | 80 to 100 | 80 to 100 | 0 to 80 | 
COc1ccnc(C(=O)N[C@H]2CCC[C@H](CCOc3ccccc3)[C@@H](Oc3ccccc3)[C@H](C)OC2=O)c1OCOC(C)=O [Compound F129] | 80 to 100 | 80 to 100 | 80 to 100 | 80 to 100 | pest or weed control at 121.5 g/ha [1, 7]: 80 to 100%; pest or weed control at 121.5 g/ha [1, 8]: 80 to 100%; pest or weed control at 121.5 g/ha [2, 9]: 80 to 100%; pest or weed control at 121.5 g/ha [2, 10]: 0 to 80%
COc1ccnc(C(=O)N[C@H]2CCC[C@H](CC3CCCC3)[C@@H](Oc3ccccc3)[C@H](C)OC2=O)c1O [Compound F27] | 80 to 100 | 80 to 100 | 80 to 100 | 80 to 100 | 
COc1ccc(C[C@H]2CCC[C@H](NC(=O)c3nccc(OC)c3O)C(=O)O[C@@H](C)[C@@H]2Oc2ccccc2)cc1 [Compound F26] | 80 to 100 | 80 to 100 | 80 to 100 | 0 to 80 | 
COCCC(=O)Oc1c(OC)ccnc1C(=O)N[C@H]1CCC[C@H](Cc2ccc(OC)cc2)[C@@H](OCC2CC2)[C@H](C)OC1=O [Compound F195, 2-(((3S,7R,8R,9S)-8-(cyclopropylmethoxy)-7-(4-methoxybenzyl)-9-methyl-2-oxooxonan-3-yl)carbamoyl)-4-methoxypyridin-3-yl 3-methoxypropanoate] |  |  |  |  | pest or weed control at 100 ppm ([1]; 24 h, Wheat Leaf Blotch, 1 Day Protectant, rate 100 ppm (high volume application), read-out: Disease control SEPTTR 1 DP): 80 to 100%; pest or weed control at 121.5 g/ha ([1]; 24 h, Wheat Leaf Blotch, 1 Day Protectant, rate 121.5 g/H (low volume application), read-out: Disease control SEPTTR 1 DP): 80 to 100%; pest or weed control at 100 ppm ([1]; 72 h, Wheat Leaf Blotch, 3 Day Curative, rate 100 ppm (high volume application), read-out: Disease control SEPTTR 3 DC): 80 to 100%; pest or weed control at 121.5 g/ha ([1]; 72 h, Wheat Leaf Blotch, 3 Day Curative, rate 121.5 g/H (low volume application), read-out: Disease control SEPTTR 3 DC): 80 to 100%; pest or weed control at 100 ppm ([2]; 24 h, Wheat Brown Rust, 1 Day Protectant, rate 100 ppm (high volume application), read-out: Disease control PUCCRT 1 DP): 80 to 100%; pest or weed control at 121.5 g/ha ([2]; 24 h, Wheat Brown Rust, 1 Day Protectant, rate 121.5 g/H (low volume application), read-out: Disease control PUCCRT 1 DP): 80 to 100%; pest or weed control at 100 ppm ([2]; 72 h, Wheat Brown Rust, 3 Day Curative, rate 100 ppm (high volume application), read-out: Disease control PUCCRT 3 DC): 80 to 100%; pest or weed control at 121.5 g/ha ([2]; 72 h, Wheat Brown Rust, 3 Day Curative, rate 121.5 g/H (low volume application), read-out: Disease control PUCCRT 3 DC): 0 to 80%
COc1ccnc(C(=O)N[C@H]2CCC[C@H](CCBr)[C@@H](Oc3ccccc3)[C@H](C)OC2=O)c1O [Compound F50] | 80 to 100 | 80 to 100 | 80 to 100 | 80 to 100 | 
COc1ccnc(C(=O)N[C@H]2CCC[C@H](C)[C@@H](OCc3ccccc3)[C@H](C)OC2=O)c1OC(C)=O [Compound F77] | 80 to 100 | 80 to 100 | 80 to 100 | 80 to 100 | pest or weed control at 121.5 g/ha [1, 7]: 80 to 100%; pest or weed control at 121.5 g/ha [1, 8]: 80 to 100%; pest or weed control at 121.5 g/ha [2, 9]: 80 to 100%; pest or weed control at 121.5 g/ha [2, 10]: 80 to 100%
COc1ccnc(C(=O)N[C@H]2CCC[C@H](CC3CCCC3)[C@@H](OCC3CC3)[C@H](C)OC2=O)c1O [Compound F31] | 80 to 100 | 80 to 100 | 80 to 100 | 80 to 100 | 
COc1ccnc(C(=O)N[C@H]2CCC[C@H](CCC(C)C)[C@@H](OC(=O)C3CCCC3)[C@H](C)OC2=O)c1O [Compound F8] | 80 to 100 | 80 to 100 | 80 to 100 | 80 to 100 | 
COc1ccnc(C(=O)N[C@H]2CCC[C@H](Cc3ccccc3)[C@@H](OCC3CC3)[C@H](C)OC2=O)c1O [Compound F19] | 80 to 100 | 80 to 100 | 80 to 100 | 80 to 100 | 
